# Assay results from US6552073B1, “Compounds and methods of treating cell proliferative diseases” (Exonhit Therapeutics SA, priority 2002, dated 2003).
# “Also recorded” adds a separate entry of the source.
# Columns and labels:
# MDA-MB-231 cells = assay: Matrigel invasion assay (Boyden chamber); type: cell-based, human; details: MDA-MB-231 cells
# Method: d) Migration and Matrigel Invasion Assay
# Chemoinvasion assay was performed in Boyden chamber as described by Albini et al (Cancer Res, 1987) with some modifications. Polycarbonate membranes with 8μm pores were coated with matrigel (125 μg/cm^2) at room temperature for 48 h. Two hours before experiments, the matrix was […] with serum-free medium containing 0.1% BSA.
# One day after seeding, 10^6 MDA-MB-231 cells were treated overnight with different concentrations of compounds (1, 10, 17.5, 25 and 50 μM). Cells were collected with Versene (Invitrogen), counted with trypan blue exclusion, rinsed twice in serum-free medium containing 0.1% BSA and resuspended in serum-free medium containing 0.1% BSA plus the appropriate concentration of compound. 10^5 treated cells were placed in the upper chamber. Medium containing 10% of FBS plus the appropriate concentration of compound was placed in the lower chamber as a chemoattractant. The Boyden chamber was incubated 6 hours at 37° C. before the cells were fixed and stained with Diff-Quick (Dade-Berhing). Cells on the upper part of the filters were removed using a cotton swab. Cells on the underside of the filters were visualised and counted under light microscope. The migration assay was performed the same way, using non-coated filters.
# [1] = system: NIH3T3 cells transfected with RasV12; assay: Colony formation assay in the presence of constitutively activated Ras (RasV12); type: cell-based, mouse; parameters: key to Colony formation: −: no effect of the compound was observed; +: an effect of the compound was observed; details: for Ras-dependent neoR clones formation: NIH3T3, RasV12; for Colony formation: NIH3T3, neoR colonies
# Method: c) Ras/Rac-dependant Signaling Pathway Analysis
# The impact of the compounds on Ras and Rac signaling pathways was analysed with two reporter systems described by Imler (Nature 1988) and Lin (Science, 1995) respectively on one hand, and by a colony formation assay in the presence of constitutively activated Ras (RasV12) and Rac (RacV12) on the other hand. For this latter experiment, fifty percent confluent NIH3T3 cells in a 10 cm diameter petri dish were transfected with 0.5 μg pSV2-RasV12 or 0.5 μg pEXV RacV12 plasmids plus 100 ng of pSV2-neomycin plasmid using Lipofectamine-Plus reagent (Invitrogen) according to the manufacturer's instructions. Forty-eight hours later, cells were trypsinised, splitted to 1/3, and incubated in the presence of complete medium supplemented with 400 μg/ml geneticin (Invitrogen) and different doses of compound (1, 10, 17.5, 25 and 50 μM) until emerging resistant clones appear (2-3 weeks). The medium was renewed every 3 days. Colonies with a minimum of 50 cells were counted after staining with Fuschin 2%.
# NIH3T3 = assay: Cytoskeleton analysis, actin staining; type: cell-based, mouse; parameters: key to Cell architecture modification, actin staining NIH3T3, ruffles (R) / Cell architecture modification, actin staining NIH3T3, focal complexes (FC): a decrease in cellular ruffles density was noted R−; an increase in focal complexes density was noted FC+
# Method: (§1) Since major rearrangements of cytoskeleton are observed in tumor cells and since the small GTPases are known to regulate these events, analysis of actin cytoskeleton was performed. Subconfluent cells seeded onto coverslips were treated with different concentration of compound (1, 10, 17.5, 25 and 50 μM) or vehicle for 24 h, before being fixed in 4% formaldehyde for 15 min., permeabilized in 0.2% Triton X100 for 5 minutes and incubated in PowerBlock (Biogenex) for 10 min. Actin filaments were stained with 0.5 μg/ml fluorescein isothiocyanate (FITC)-labelled phalloidin for 1 hour. Analysis was performed using an inverted fluorescent microscope.
# H460 = assay: Cytoskeleton analysis, actin staining; type: cell-based, human
# Method: as §1
# HCT116 = assay: Cytoskeleton analysis, actin staining; type: cell-based, human
# Method: as §1
# MDA231 = assay: Cytoskeleton analysis, actin staining; type: cell-based, human
# Method: as §1
# MMP-2 = assay: Gelatin zymography; type: cell-based, human; details: zymogram gel, MDA-MB-231 supernatant
# Method: (§2) The activity of the metalloproteases MMP-2 and MMP-9 was assayed using gelatinolytic zymography according to Lambert (Surgery 1997). Briefly, MDA-MB-231 cells were incubated overnight in serum-free medium supplemented with ITS liquid supplement (Sigma) with different concentrations of compound (1, 10, 17.5, 25 and 50 μM). Supematant was collected and concentrated with Ultrafree 30 kDA (Millipore). Equal amount of proteins, as determined by Bradford measurement, were loaded onto a 10% w/v polyacrylamide gel containing 1% gelatin and 0.1% SDS (Novex). After electrophoresis, gels were washed in Novex Zymogram Renaturing buffer for 30 min at room temperature and incubated overnight at 37° C. in Novex Zymogram developing buffer. Gels were stained in Coomassie Brilliant Blue G-250, and the gelatinolytic activity was visualized as a clear band against the blue background of the stained gelatin.
# MMP-9 = assay: Gelatin zymography; type: cell-based, human; details: zymogram gel, MDA-MB-231 supernatant
# Method: as §2
SMILES,concentration at which an increase in invasive properties was noted (MDA-MB-231 cells) [µM],Ras-dependent neoR clones formation [1],Colony formation [1],"Cell architecture modification, actin staining NIH3T3, focal complexes (FC) (NIH3T3)","Cell architecture modification, actin staining NIH3T3, ruffles (R) (NIH3T3)","Cell architecture modification, actin staining H460, general observation (H460)","Cell architecture modification, actin staining HCT116, general observation (HCT116)","Cell architecture modification, actin staining MDA231, general observation (MDA231)",concentration of dose-dependant inhibition of MMP-2 (MMP-2) [µM],concentration of dose-dependant inhibition of MMP-9 (MMP-9) [µM],melting point [°C]
"CCCc1ccccc1OCCCCCOc1coc(CO)cc1=O [EH18900, 5-[5-(2-Propylphenyloxy)pentyloxy]-2-(hydroxymethyl)-4H-pyran-4-one]",50,inhibited,+,FC+,R−,cell spreading,cell spreading,,,,
"CCCc1c(OCCCCCOc2coc(CO)cc2=O)ccc(Cl)c1Cl [EH22900, 5-[5-(3,4-Dichloro-2-propylphenyloxy)pentyloxy]-2-(hydroxymethyl)-4H-pyran-4-one]",,inhibited,+,FC+,R−,,,increased MDA-MB-231 spreading; also recorded: cell spreading,5,5,85 to 86
